# Measured values taken from US20120207861A1, “BIOCIDAL COMPOSITION AND METHOD FOR TREATING RECIRCULATING WATER SYSTEMS” (priority 2006, published 2012).
# What was measured:
# [1] = system: biofilm of fungal isolates (Paecilomyces lilacinus, Trichoderma spp.) and bacterial isolates (Alcaligenes species, Sphingomonas species); test: Remediation: 96-well plate mixed biofilm treated with biocides, resazurin readout; format: cell-based; conditions: for Efficacy level (Effective Concentration with 6 ppm of PHMB): with 6 ppm PHMB, biofilm treated 24 hours at 28° C., resazurin; for Result (effect of adjuvant on DBNPA efficacy against biofilm): adjuvant 50 ppm with DBNPA in presence of PHMB
# Protocol: Fungal isolates of common fungi found in swimming pools such as Paecilomyces lilacinus and Trichoderma spp. and bacterial isolates also common to swimming pools such as, i.e. Alcaligenes species and Sphingomonas species were used to construct a biofilm, which was treated with biocides, using the following method: […] An aliquot of the spore suspension was added to each well of a 96-well plate, except column 12. The plates were incubated for 18 hours at 28° C. Also, a mixture of bacterial suspension was prepared at a concentration of 2.34×10^5/ml in 20% […] broth. An aliquot of bacterial suspension was added to each well of the 96-well plate, where fungal spores were placed. The plates were incubated for 24 hours at 28° C. […] An aliquot of the chemical solution was added to each well of column 1 and 2. The solution was mixed in each well of column 2 and an aliquot of solution was transferred from each well of column 2 to each well of column 3. The dilution was repeated to column 11 and the solution from each well of column 11 after dilution was discarded. The culture broth was removed from each well of the incubated plate. An aliquot of 0.8% sodium chloride solution was added to each well, except column 12. The sodium chloride solution was then removed from each well. The prepared chemical solutions were transferred to the corresponding wells of the biofilm plate. The plate was incubated for 24 hours at 28° C. The chemical solution was removed from the plate and an aliquot of resazurin solution was added to each well including column 12. The plate was kept on the lab bench for 24-48 hours. The plate was read at 540 nm and 620 nm. The difference in absorbance between the two wavelengths indicated the performance of the biocides.
# [2] = system: eight species of bacteria and four species of fungi typically found in swimming pool water; test: Prevention secondary screen: laboratory scale model of a swimming pool, water clarity and hydrogen peroxide loss; format: cell-based; conditions: for Number of Days of Clarity below 1.0 NTU / Number of Days of Clarity below 1.0 NTU with no Peroxide in System: Table 4
# [3] = system: viable bacteria in pool water and sand with established biofilm; test: Remedial secondary screen: failed model pool, reduction of viable microorganisms in water and sand; format: cell-based; conditions: FIGS. 1 and 2
# Protocol: The secondary screen methodology is based upon a laboratory scale model of a swimming pool. A volume (800 ml) of synthetic swimming pool water (Calcium chloride dihydrate and Sodium hydrogen carbonate solution) is pumped through a body of swimming pool filter sand, by means of a peristaltic pump. The water temperature of each system is maintained in the range of 80-90° F. The systems are allowed to fail resulting in turbid water and heavy bacterial and fungal growth. This is to simulate a swimming pool that has been improperly maintained and has a problem. The purpose of this test is to evaluate the ability of a single biocide or combination of biocides with adjuvants for controlling the organisms present in both the water and the filter sand. Turbidity is not a key measure because the suspended solids are too fine for filtration so they would need to be removed with a separate chemical treatment such as flocculation. To the water, chemicals may be added as required. […] Hydrogen peroxide is added at concentrations of 0-27.5 ppm at the start of the experimentation. The secondary model system is challenged on a daily basis with eight species of bacteria and four species of fungi typically found in swimming pool water. These microorganisms include species of the fungi Paecilomyces and Trichoderma, and species of the bacteria Alcaligenes, Chryseobacterium and Sphingomonas. Each inoculation represents a total addition of 0.8×10^6 microorganisms per model apparatus. A volume (5 ml) of synthetic bather load is added to the system on a daily basis, as a nutrient source for the microorganisms present in the system. The bather load consists of carbon, nitrogen and macro/micro nutrient sources such as urea, albumin, creatinine, lactic acid, uric acid, glucuronic acid, sodium chloride, sodium sulfate, ammonium chloride, sodium bicarbonate, potassium phosphate potassium sulfate. […] The biocidal treatments are added and reduction of viable microorganisms is measured. The biocidal treatments may be added a second time.
# [4] = system: Mold (fungi Paecilomyces and Trichoderma); test: Prevention in test pools: water mold counts
# Protocol: (§1) The test pools were run in the preventative mode to evaluate the effect of the sanitizers on the build up of bacteria and fungi in the system. The pool pumps were operated for a minimum of 8 hours per day. Each pool was challenged twice per week with eight species of bacteria and four species of fungi typically found in swimming pool water. These microorganisms include species of the fungi Paecilomyces and Trichoderma, and species of the bacteria Alcaligenes, Chryseobacterium and Sphingomonas. Each inoculation represents a total addition of 0.8×106 microorganisms per test pool. Synthetic bather load is added to the system on a weekly basis, as a nutrient source for the microorganisms present in the system. The bather load consists of carbon, nitrogen and macro/micro nutrient sources such as urea, albumin, creatinine, lactic acid, uric acid, glucuronic acid, sodium chloride, sodium sulfate, ammonium chloride, sodium bicarbonate, potassium phosphate potassium sulfate. The total number of viable bacteria and fungi present in each test pool was determined weekly, by conducting agar plate counts. Water samples are removed from each test pool, and using this sample a dilution series (in 10-1 steps, down to a 10-5 of the original sample) is prepared. Subsequently, an aliquot of each dilution is spread onto dry Cystine Lactose Electrolyte Deficient agar plates (for enumeration of bacteria) and dry Sabaroud-Dextrose agar plates (for enumeration of fungi). […] There were no chemical doses administered on Saturday or Sunday.
# [5] = system: eight species of bacteria and four species of fungi typically found in swimming pool water; test: Prevention in test pools: overall mold and bacterial control
# Protocol: The test pools were run in the preventative mode to evaluate the effect of the sanitizers on the build up of bacteria and fungi in the system. The pool pumps were operated for a minimum of 8 hours per day. Each pool was challenged twice per week with eight species of bacteria and four species of fungi typically found in swimming pool water. These microorganisms include species of the fungi Paecilomyces and Trichoderma, and species of the bacteria Alcaligenes, Chryseobacterium and Sphingomonas. Each inoculation represents a total addition of 0.8×106 microorganisms per test pool. Synthetic bather load is added to the system on a weekly basis, as a nutrient source for the microorganisms present in the system. The bather load consists of carbon, nitrogen and macro/micro nutrient sources such as urea, albumin, creatinine, lactic acid, uric acid, glucuronic acid, sodium chloride, sodium sulfate, ammonium chloride, sodium bicarbonate, potassium phosphate potassium sulfate. The total number of viable bacteria and fungi present in each test pool was determined weekly, by conducting agar plate counts. Water samples are removed from each test pool, and using this sample a dilution series (in 10-1 steps, down to a 10-5 of the original sample) is prepared. […]
# [6] = system: Bacteria (Alcaligenes, Chryseobacterium and Sphingomonas); test: Prevention in test pools: water bacteria counts
# Protocol: as §1
# [7] = system: fungi Paecilomyces and Trichoderma; test: Prevention secondary screen: fungal plate counts; format: cell-based; conditions: Table 4
# [8] = system: bacteria Alcaligenes, Chryseobacterium and Sphingomonas; test: Prevention secondary screen: bacterial plate counts; format: cell-based; conditions: Table 4
# [9] = DBNPA 1 ppm Daily Additions, in the absence of PHMB
# [10] = Pool 2, 1.0 ppm/day DBNPA, Low Baquacil (10-20 ppm)
# [11] = Pool 2, 1.0 ppm/day DBNPA, Recommended Baquacil (30-50 ppm)
# [12] = Pool 6, 0.5 ppm/day DBNPA, Low Baquacil (10-20 ppm)
# [13] = Pool 6, Tablet 0.3 ppm/day DBNPA, Recommended Baquacil (30-50 ppm), with hydrogen peroxide doses
# [14] = Pool 7, 2.0 ppm/day DBNPA, Low Baquacil (10-20 ppm)
# [15] = Pool 7, 2.0 ppm/day DBNPA, Recommended Baquacil (30-50 ppm)
molecule,measurement,setting,value
"CCCCCCCCCCCCN [Armeen 12D, Dodecyl amines]",Efficacy level (Effective Concentration with 6 ppm of PHMB),[1],>100 ppm
"N#CC(Br)(Br)C(N)=O [DBNPA, Dibromonitrilopropionamide]",Number of Days of Clarity below 1.0 NTU,[2]; DBNPA 0.25 ppm Daily Additions,47 days
same,Number of Days of Clarity below 1.0 NTU with no Peroxide in System,[2]; DBNPA 0.25 ppm Daily Additions,0 days
same,Number of Days of Clarity below 1.0 NTU,[2]; DBNPA 0.5 ppm Daily Additions,54 days
same,Number of Days of Clarity below 1.0 NTU with no Peroxide in System,[2]; DBNPA 0.5 ppm Daily Additions,19 days
same,Number of Days of Clarity below 1.0 NTU,[2]; [9],<12 days
same,time to failure of the system (turbid water) versus PHMB alone or PHMB and DBNPA combinations,"[2]; experiment 2, DBNPA added daily at 1 ppm in the absence of PHMB",failure of the system and development of turbid water significantly sooner
same,"performance at preventing turbid water and controlling bacteria and fungi, compared to PHMB alone","[2]; experiment one, DBNPA weekly addition with PHMB",did not perform as well as the PHMB only treatment
same,Effective concentration of DBNPA in presence of PHMB and Adjuvant,[1]; Adjuvant DSPO 50 ppm,1.6-3.13 ppm
same,Effective concentration of DBNPA in presence of PHMB and Adjuvant,[1]; Adjuvant DTEA 50 ppm,3.13-6.25 ppm
same,Effective concentration of DBNPA in presence of PHMB and Adjuvant,[1]; Adjuvant Envirosweet 50 ppm,6.25-12.5 ppm
same,Effective concentration of DBNPA in presence of PHMB and Adjuvant,[1]; Adjuvant Geogard 111A 50 ppm,6.25-12.5 ppm
same,Effective concentration of DBNPA in presence of PHMB and Adjuvant,[1]; Adjuvant None,3.13-6.25 ppm
same,Effective concentration of DBNPA in presence of PHMB and Adjuvant,[1]; Adjuvant SADA 50 ppm,1.5-3.13 ppm
same,Effective concentration of DBNPA in presence of PHMB and Adjuvant,[1]; Adjuvant Span 60 50 ppm,3.13-6.25 ppm
same,Effective concentration of DBNPA in presence of PHMB and Adjuvant,[1]; Adjuvant Sulfamic acid 50 ppm,0.8-1.6 ppm
same,Effective concentration of DBNPA in presence of PHMB and Adjuvant,[1]; Adjuvant Surfonic L24-22 50 ppm,3.13-6.25 ppm
same,Effective concentration of DBNPA in presence of PHMB and Adjuvant,[1]; Adjuvant Triton BG10 50 ppm,3.13-6.25 ppm
same,Effective concentration of DBNPA in presence of PHMB and Adjuvant,[1]; Adjuvant Worm 50 ppm,1.6-3.13 ppm
same,reduction of viable bacterial and fungal populations (remedial performance),[3]; versus oxidizers and surfactants,significantly better than the oxidizers and surfactants
same,log reduction of viable bacteria in the water,[3]; remedial treatment of failed model system,improved performance over the non-oxidizing surfactants
same,log reduction of viable bacteria in the sand,"[3]; remedial treatment of failed model system, established biofilm",superior
same,Mold % 0 counts,[4]; [10],59.7%
same,Mold % Counts >999 cfu/ml,[4]; [10],3.0%
same,Mold Avg Counts,[4]; [10],4267 cfu/ml
same,Mold % 0 counts,[4]; [11],69.0%
same,Mold % Counts >999 cfu/ml,[4]; [11],0.0%
same,Mold Avg Counts,[4]; [11],9.0 cfu/ml
same,mold control compared to the other DBNPA pools,[4]; Pool 2 at low PHMB (1.0 ppm/day DBNPA),had difficulty controlling mold
same,Mold % 0 counts,[4]; [12],76.1%
same,Mold % Counts >999 cfu/ml,[4]; [12],0.0%
same,Mold Avg Counts,[4]; [12],19.0 cfu/ml
same,Mold % 0 counts,[4]; [13],66.7%
same,Mold % Counts >999 cfu/ml,[4]; [13],0.0%
same,Mold Avg Counts,[4]; [13],8.0 cfu/ml
same,Mold % 0 counts,[4]; [14],74.6%
same,Mold % Counts >999 cfu/ml,[4]; [14],1.5%
same,Mold Avg Counts,[4]; [14],620 cfu/ml
same,Mold % 0 counts,[4]; [15],83.3%
same,Mold % Counts >999 cfu/ml,[4]; [15],0.0%
same,Mold Avg Counts,[4]; [15],4.0 cfu/ml
same,average mold and bacterial counts when PHMB was increased to recommended ranges,[5]; all pools treated with DBNPA,significantly reduced
same,improved performance over controls (average mold and bacterial counts),[5]; all pools treated with DBNPA versus control pools,2-4 logs
same,Bacteria % 0 counts,[6]; [10],83.6%
same,Bacteria % Counts >999 cfu/ml,[6]; [10],4.5%
same,Bacteria Avg Counts,[6]; [10],561 cfu/ml
same,Bacteria % 0 counts,[6]; [11],83.3%
same,Bacteria % Counts >999 cfu/ml,[6]; [11],2.4%
same,Bacteria Avg Counts,[6]; [11],74.0 cfu/ml
same,Bacteria % 0 counts,[6]; [12],88%
same,Bacteria % Counts >999 cfu/ml,[6]; [12],1.5%
same,Bacteria Avg Counts,[6]; [12],150 cfu/ml
same,Bacteria % 0 counts,[6]; [13],92.8%
same,Bacteria % Counts >999 cfu/ml,[6]; [13],0.0%
same,Bacteria Avg Counts,[6]; [13],5.0 cfu/ml
same,Bacteria % 0 counts,[6]; [14],89.6%
same,Bacteria % Counts >999 cfu/ml,[6]; [14],0.0%
same,Bacteria Avg Counts,[6]; [14],22.0 cfu/ml
same,Bacteria % 0 counts,[6]; [15],100%
same,Bacteria % Counts >999 cfu/ml,[6]; [15],0.0%
same,Bacteria Avg Counts,[6]; [15],0.0 cfu/ml
same,Fungal Counts at Clarity of 1.0 NTU or above,[7]; DBNPA 0.25 ppm Daily Additions,3.0 × 10^2 CFU/ml
same,Fungal Counts at Clarity of 1.0 NTU or above,[7]; DBNPA 0.5 ppm Daily Additions,2.0 × 10^2 CFU/ml
same,Fungal Counts at Clarity of 1.0 NTU or above,[7]; [9],1.2 × 10^3 CFU/ml
same,Bacterial Counts at Clarity of 1.0 NTU or above,[8]; DBNPA 0.25 ppm Daily Additions,3.0 × 10^7 CFU/ml
same,Bacterial Counts at Clarity of 1.0 NTU or above,[8]; DBNPA 0.5 ppm Daily Additions,1.3 × 10^8 CFU/ml
same,Bacterial Counts at Clarity of 1.0 NTU or above,[8]; [9],9.9 × 10^7 CFU/ml
"O=C1c2ccccc2C(=O)c2ccccc21 [Envirosweet, 9,10 anthraquinone]",Result (effect of adjuvant on DBNPA efficacy against biofilm),[1],Negative impact
"CC(=O)C1C(=O)C=C(C)OC1=O (stereo not drawn) [Geogard 111A, Dehydroxyacetic acid (dehydroacetic acid)]",Result (effect of adjuvant on DBNPA efficacy against biofilm),[1],Negative impact
"CCCCCCCCCCCCCC(=O)O [Myristian, Mystic acid]",Efficacy level (Effective Concentration with 6 ppm of PHMB),[1],>100 ppm
NS(=O)(=O)O [Sulfamic acid],Result (effect of adjuvant on DBNPA efficacy against biofilm),[1],most significant effect on lowering the concentration of DBNPA
Fatty alcohol polyglycol ether [Genapol C 050],Efficacy level (Effective Concentration with 6 ppm of PHMB),[1],>100 ppm
"N-Alkyl (C12-16)-N,N-dimethyl-N-benzylammonium chloride [Uniquat QAC-50]",Efficacy level (Effective Concentration with 6 ppm of PHMB),[1],>100 ppm
POE (2) stearyl ether [Brij ® 72],Efficacy level (Effective Concentration with 6 ppm of PHMB),[1],>100 ppm
Sorbitan monooleate [Alkamuls BR],Efficacy level (Effective Concentration with 6 ppm of PHMB),[1],>100 ppm
